Results on five compounds are retold here after patent US6465612B1, “Synthetic peptides, conjugation reagents and methods” (The Regents of the University of California, priority 1998, dated 2002).

For experiment [1], the system named is E. coli D22. The experiment is described as follows: Bacterial growth inhibition assays (Example IV). Format: cell-based. The method, then: General methods: Galactose oxidase (EC 1.1.3.9) (450 units/mg) was purchased from Sigma. All chemical reagents were obtained from commercial suppliers and used without further purification. For flash chromatography, 230-400 mesh silica gel 60 (E. Merck No. 9385) was employed. Analytical thin layer chromatography (tlc) was conducted on Analtech Uniplate silica gel plates with detection by ceric ammonium molybdate and/or by UV light. Reversed-phase high pressure liquid chromatography (RP-HPLC) was performed on a Rainin Dynamax SD-200 system using Microsorb and Dynamax C18 reversed-phase columns (analytical: 4.6 mm ID×25 cm, 1 mL/min; semi-preparative: 10 mm ID×25 cm, 3 mL/min), and ultraviolet detection (230 nm) was performed with a Rainin Dynamax UV-1 detector. The E. coli strain D22 used in bacterial growth inhibition assays was obtained from the E. Coli Genetic Stock Center at Yale University.
Bacterial growth inhibition assays. […] Peptide concentrations were determined by measuring dry weight, and assuming 80% of that weight was peptide and the remainder water and salts. […] Growth was determined by measuring the absorbance at 595 nm on a BioRad 550 microplate reader. Percent inhibition was defined as ((Ao−Ax)/Ao)*100), where Ao was the absorbance of a control well lacking peptide and Ax was the absorbance of a well with peptide.

Experiment [2] deals with E. coli D22. The experiment can be described thus: growth inhibition assay (Example II). To be noted: for IC50: E. coli D22 in LB media with streptomycin, 24 h at rt, absorbance at 415 nm, read-out: IC50 in blocking bacterial growth. The experiment is classed as cell-based. The method, then:
10. The growth inhibition assay was performed essentially as described by Bulet et al.^3 Sterile 96-well plates were used, with a final volume of 100 μL per well. This volume consisted of 90 μL of mid-logarithmnic phase culture of E. coli D22 in LB media containing streptomycin (50 μg/mL), added to 10 μL of serially diluted peptide (native drosocin (1), unglycosylated drosocin or neoglycopeptide 2) in water. Final peptide concentrations ranged from 10^−8 to 10^−5 M. Plates were incubated for 24 h at rt. Bacterial growth was determined by measuring the absorbance at 415 nm on a BioRad 550 microplate reader. Measurements were taken at t=0 h and t=24 h, and the change in absorbance (optical density) was recorded.

The test system of the next experiment is bacterial growth. To be noted: cited from earlier work; for enhancement of bacteriostatic potency by the O-linked glycan (GalNAc residue) at Thr11: glycosylated vs unglycosylated peptide.

Starred links: 1 amine or outer side, 2 acyl side, 3 side chain; linkers in the order of their positions; H or OH if unused. Non-standard residues stand in square brackets, D forms with d. Residues, ends and D or L forms follow the SMILES beside them. No end group written: not given here. ξ: configuration not given here. *: point of attachment. X1 = CC(=O)N[C@@H]1[C@@H](O)[C@@H](O)[C@@H](C=NO[C@@H]2O[C@H](CO)[C@H](O)[C@H](O)[C@H]2O)O[C@@H]1*; X2 = CC(=O)N[C@H]1[C@@H](ON=C(C)C[C@H](N[*:1])C(=O)[*:2])O[C@H](CO)[C@H](O)[C@@H]1O; αGalNAc = CC(=O)N[C@@H]1[C@@H](O)[C@@H](O)[C@@H](CO)O[C@@H]1*; Thr(3ξ) = CC(O)[C@H](N)C(=O)O

As for `CC[C@H](C)[C@H](NC(=O)[C@@H]1CCCN1C(=O)[C@H](CCCNC(=N)N)NC(=O)[C@@H]1CCCN1C(=O)[C@H](Cc1c[nH]cn1)NC(=O)[C@H](CO)NC(=O)[C@@H](NC(=O)[C@@H]1CCCN1C(=O)[C@H](CCCNC(=N)N)NC(=O)[C@@H]1CCCN1C(=O)[C@H](CO)NC(=O)[C@H](Cc1ccc(O)cc1)NC(=O)[C@@H]1CCCN1C(=O)[C@H](CCCNC(=N)N)NC(=O)[C@@H]1CCCN1C(=O)[C@H](CCCCN)NC(=O)CN)[C@@H](C)O[C@H]1O[C@H](C=NO[C@@H]2O[C@H](CO)[C@H](O)[C@H](O)[C@H]2O)[C@H](O)[C@H](O)[C@H]1NC(C)=O)C(=O)N[C@@H](CCCNC(=N)N)C(=O)N[C@H](C(=O)O)C(C)C` [Glycopeptide 5] (H-GKPRPYSPRPT(X1)SHPRPIRV-OH), the “potency in blocking bacterial growth relative to unglycosylated drosocin” value in the experiment on E. coli D22 [1] (E. coli D22, 6 h at 25° C.) lay within 3 to 4 fold.

Broadly, the IC50 is the concentration at which inhibition is half-maximal. With `CC[C@H](C)[C@H](NC(=O)[C@@H]1CCCN1C(=O)[C@H](CCCNC(=N)N)NC(=O)[C@@H]1CCCN1C(=O)[C@H](Cc1c[nH]cn1)NC(=O)[C@H](CO)NC(=O)[C@@H](NC(=O)[C@@H]1CCCN1C(=O)[C@H](CCCNC(=N)N)NC(=O)[C@@H]1CCCN1C(=O)[C@H](CO)NC(=O)[C@H](Cc1ccc(O)cc1)NC(=O)[C@@H]1CCCN1C(=O)[C@H](CCCNC(=N)N)NC(=O)[C@@H]1CCCN1C(=O)[C@H](CCCCN)NC(=O)CN)C(C)O[C@H]1O[C@H](CO)[C@H](O)[C@H](O)[C@H]1NC(C)=O)C(=O)N[C@@H](CCCNC(=N)N)C(=O)N[C@H](C(=O)O)C(C)C` (stereo partly drawn) [native drosocin (1), H2N-Gly-Lys-Pro-Arg-Pro-Tyr-Ser-Pro-Arg-Pro-Thr(α-D-GalNAc)-Ser-His-Pro-Arg-Pro-Ile-Arg-Val-OH] (H-GKPRPYSPRP[Thr(3ξ)](αGalNAc)SHPRPIRV-OH), the IC50 in the experiment with E. coli D22 [2] worked out at 0.1 ± 0.02 µM. Further, the “enhancement of bacteriostatic potency by the O-linked glycan (GalNAc residue) at Thr11” value with bacterial growth is given as “approximately five-fold”.

Regarding `CC[C@H](C)[C@H](NC(=O)[C@@H]1CCCN1C(=O)[C@H](CCCNC(=N)N)NC(=O)[C@@H]1CCCN1C(=O)[C@H](Cc1c[nH]cn1)NC(=O)[C@H](CO)NC(=O)[C@H](CC(C)=NO[C@H]1O[C@H](CO)[C@H](O)[C@H](O)[C@H]1NC(C)=O)NC(=O)[C@@H]1CCCN1C(=O)[C@H](CCCNC(=N)N)NC(=O)[C@@H]1CCCN1C(=O)[C@H](CO)NC(=O)[C@H](Cc1ccc(O)cc1)NC(=O)[C@@H]1CCCN1C(=O)[C@H](CCCNC(=N)N)NC(=O)[C@@H]1CCCN1C(=O)[C@H](CCCCN)NC(=O)CN)C(=O)N[C@@H](CCCNC(=N)N)C(=O)N[C@H](C(=O)O)C(C)C` [neoglycopeptide 2] (H-GKPRPYSPRP[X2]SHPRPIRV-OH), the “potency in blocking bacterial growth relative to unglycosylated drosocin” value with E. coli D22 [2] (E. coli D22, 24 h at rt) is given as “four-fold more potent”. Besides, in the experiment on E. coli D22 [2], the IC50 was determined as 0.16 ± 0.04 µM.

Consider GKPRPYSPRPTSHPRPIRV [drosocin], for which the “enhancement of potency in blocking bacterial growth by a single O-linked disaccharide (Gal-GalNAc) at Thr11” value in the experiment with bacterial growth (depending on the target bacterial strain) is listed as 2-8 fold. Also, the “enhancement of bacteriostatic potency by the O-linked glycan (GalNAc residue) at Thr11” value with bacterial growth is reported as “five-fold”.

“H-GKPRPYSPRPTSHPRPIRV-OH [unglycosylated drosocin]”: the IC50 with E. coli D22 [1] (E. coli D22 in LB media with streptomycin, 6 h at 25° C., absorbance at 595 nm, read-out: IC50 in blocking bacterial growth) was 0.4 ± 0.05 µM; in the experiment on E. coli D22 [2], 0.63 ± 0.05 µM.
